Calls of active or inactive are those of the source. How the calls were made is not given here.

For 6 compounds, mutagenic call results are on record in PubChem BioAssay AID1259407 (Chemical Carcinogenesis Research Information System (CCRIS), 2018).

This data set relates to CCRIS mutagenicity, Ames/micronucleus/aberration tests. Put plainly: CCRIS mutagenicity studies.
Setting [1] is: Test System: AMES SALMONELLA TYPHIMURIUM, Strain/Indicator: TA104, Metabolic Activation: NONE, Method: PREINCUBATION
[2] abbreviates: Test System: AMES SALMONELLA TYPHIMURIUM, Strain/Indicator: TA102, Metabolic Activation: NONE, Method: STANDARD PLATE.

Turning to `C=C1C[C@@]23CC[C@H]4[C@@](C)(CCC[C@@]4(C)C(=O)O)[C@@H]2CC[C@]1(O)C3`, the mutagenic call reads like this: (Test System: AMES SALMONELLA TYPHIMURIUM, Strain/Indicator: TA97, Metabolic Activation: NONE, Method: PREINCUBATION) “inactive; negative”; (Test System: AMES SALMONELLA TYPHIMURIUM, Strain/Indicator: TA97, Metabolic Activation: RAT, LIVER, S-9, PCB, Method: PREINCUBATION) “inactive; negative”; (Test System: AMES SALMONELLA TYPHIMURIUM, Strain/Indicator: TA98, Metabolic Activation: NONE, Method: PREINCUBATION) “inactive; negative”; (Test System: AMES SALMONELLA TYPHIMURIUM, Strain/Indicator: TA98, Metabolic Activation: RAT, LIVER, S-9, PCB, Method: PREINCUBATION) “inactive; negative”; (Test System: AMES SALMONELLA TYPHIMURIUM, Strain/Indicator: TA98, Metabolic Activation: RAT, LIVER, S-9, SODIUM PHENOBARBITAL AND 5,6-BENZOFLAVONE, Method: PREINCUBATION) “inactive; negative”; (Test System: AMES SALMONELLA TYPHIMURIUM, Strain/Indicator: TA100, Metabolic Activation: NONE, Method: PREINCUBATION) “inactive; negative”. Also, the mutagenic call reads like this: (Test System: AMES SALMONELLA TYPHIMURIUM, Strain/Indicator: TA100, Metabolic Activation: RAT, LIVER, S-9, PCB, Method: PREINCUBATION) “inactive; negative”; (Test System: AMES SALMONELLA TYPHIMURIUM, Strain/Indicator: TA100, Metabolic Activation: RAT, LIVER, S-9, SODIUM PHENOBARBITAL AND 5,6-BENZOFLAVONE, Method: PREINCUBATION) “inactive; negative”; (Test System: AMES SALMONELLA TYPHIMURIUM, Strain/Indicator: TA102, Metabolic Activation: NONE, Method: PREINCUBATION) “inactive; negative”; (Test System: AMES SALMONELLA TYPHIMURIUM, Strain/Indicator: TA102, Metabolic Activation: RAT, LIVER, S-9, PCB, Method: PREINCUBATION) “inactive; negative”; under setting [1], “inactive; negative”; (Test System: AMES SALMONELLA TYPHIMURIUM, Strain/Indicator: TA104, Metabolic Activation: RAT, LIVER, S-9, PCB, Method: PREINCUBATION) “inactive; negative”. Besides, the mutagenic call was “inactive; negative” (Test System: AMES SALMONELLA TYPHIMURIUM, Strain/Indicator: TM677, Metabolic Activation: NONE, Method: PREINCUBATION); “active; positive” (Test System: AMES SALMONELLA TYPHIMURIUM, Strain/Indicator: TM677, Metabolic Activation: RAT, LIVER, MICROSOMES, AROCLOR 1254, Method: SUSPENSION/PLATE); “active; positive” (Test System: AMES SALMONELLA TYPHIMURIUM, Strain/Indicator: TM677, Metabolic Activation: RAT, LIVER, S-9, AROCLOR 1254, Method: PREINCUBATION); “active; positive” (Test System: AMES SALMONELLA TYPHIMURIUM, Strain/Indicator: TM677, Metabolic Activation: RAT, LIVER, S-9, AROCLOR 1254, Method: SUSPENSION/PLATE).

With `Cc1cc2c(cc1C)C(C)c1ccccc1-2` (configuration not stated), the mutagenic call was “active; positive” (Test System: AMES SALMONELLA TYPHIMURIUM, Strain/Indicator: TA98, Metabolic Activation: RAT, LIVER, S-9, AROCLOR 1254, Method: STANDARD PLATE) and “active; positive” (Test System: AMES SALMONELLA TYPHIMURIUM, Strain/Indicator: TA100, Metabolic Activation: RAT, LIVER, S-9, AROCLOR 1254, Method: STANDARD PLATE).

Consider `CCCCCCCC/C=C\CCCCCCCCCCCC(=O)NCCCCCCCCCCCCCCCCCC`, for which the mutagenic call by setting is: (Test System: AMES SALMONELLA TYPHIMURIUM, Strain/Indicator: TA97, Metabolic Activation: NONE, Method: STANDARD PLATE) “inactive; negative”; (Test System: AMES SALMONELLA TYPHIMURIUM, Strain/Indicator: TA97, Metabolic Activation: S-9, Method: STANDARD PLATE) “inactive; negative”; (Test System: AMES SALMONELLA TYPHIMURIUM, Strain/Indicator: TA98, Metabolic Activation: NONE, Method: STANDARD PLATE) “inactive; negative”; (Test System: AMES SALMONELLA TYPHIMURIUM, Strain/Indicator: TA98, Metabolic Activation: S-9, Method: STANDARD PLATE) “inactive; negative”; (Test System: AMES SALMONELLA TYPHIMURIUM, Strain/Indicator: TA100, Metabolic Activation: NONE, Method: STANDARD PLATE) “inactive; negative”; (Test System: AMES SALMONELLA TYPHIMURIUM, Strain/Indicator: TA100, Metabolic Activation: S-9, Method: STANDARD PLATE) “inactive; negative”. Further, the mutagenic call was “inactive; negative” under setting [2]; “inactive; negative” (Test System: AMES SALMONELLA TYPHIMURIUM, Strain/Indicator: TA102, Metabolic Activation: S-9, Method: STANDARD PLATE); “inactive; negative” (Test System: E.COLI, Strain/Indicator: WP2 (PKM101), Metabolic Activation: NONE, Method: STANDARD PLATE); “inactive; negative” (Test System: E.COLI, Strain/Indicator: WP2 (PKM101), Metabolic Activation: S-9, Method: STANDARD PLATE).

With `O=[N+]([O-])c1ccc2c3c(ccc([N+](=O)[O-])c13)-c1ccccc1-2`, the mutagenic call by setting is: (Test System: AMES SALMONELLA TYPHIMURIUM, Strain/Indicator: TA97, Metabolic Activation: NONE) “active; positive”; (Test System: AMES SALMONELLA TYPHIMURIUM, Strain/Indicator: TA98(1,8-DNP6), Metabolic Activation: NONE) “active; positive”; (Test System: AMES SALMONELLA TYPHIMURIUM, Strain/Indicator: TA98(NR), Metabolic Activation: NONE) “active; positive”; (Test System: AMES SALMONELLA TYPHIMURIUM, Strain/Indicator: TA98, Metabolic Activation: NONE) “active; positive”; (Test System: AMES SALMONELLA TYPHIMURIUM, Strain/Indicator: TA100, Metabolic Activation: NONE) “active; positive”; (Test System: AMES SALMONELLA TYPHIMURIUM, Strain/Indicator: TA1535, Metabolic Activation: NONE) “inactive; negative”. In addition, the mutagenic call (Test System: AMES SALMONELLA TYPHIMURIUM, Strain/Indicator: TA1537, Metabolic Activation: NONE) is “active; positive”; the mutagenic call (Test System: AMES SALMONELLA TYPHIMURIUM, Strain/Indicator: TA1538, Metabolic Activation: NONE) was “active; positive”; the mutagenic call (Test System: AMES SALMONELLA TYPHIMURIUM, Strain/Indicator: TA1978, Metabolic Activation: NONE) was “inactive; negative”.

Consider `CCOC(C)C(=O)C(O)O` (configuration not stated), for which the mutagenic call is “active; positive” under setting [2]; “active; positive” under setting [1]; “active; positive” (Test System: AMES SALMONELLA TYPHIMURIUM, Strain/Indicator: TA2638A, Metabolic Activation: NONE, Method: STANDARD PLATE).

As to `CCCCN(N=O)C(=O)NC`, the mutagenic call runs as follows: (Test System: E. COLI, Strain/Indicator: WP2 UVRA, Metabolic Activation: NONE, Method: PREINCUBATION) “active; positive”; (Test System: E. COLI, Strain/Indicator: WP2 UVRA, Metabolic Activation: RAT, LIVER, S-9, PHENOBARBITAL AND 5,6-BENZOFLAVONE, Method: PREINCUBATION) “active; positive”.
